Data as given in patent publication US6562332B2, “Attractants of beneficial insects” (Iowa State University Research Foundation, Inc., priority 1999, dated 2003).
Entries after “also recorded” stand apart in the source; their conditions may differ.

How the values were obtained:
[1] = test system: antennae of Coleomegilla maculata; assay: Electroantennogram (EAG) responses of Coleomegilla maculata antennae; settings: for EAG response: C. maculata antennae, both sexes; for EAG response threshold of female antennae: C. maculata female antennae versus male; for dose at which EAG saturation occurred / minimum dose for a significant EAG response: both male and female antennae; for dose eliciting significant EAG responses from female antennae: C. maculata female antennae; for EAG response threshold of female antennae / dose eliciting significant EAG responses from female antennae / dose at which EAG of male antennae reached saturation: dose-response
Protocol: Adults of both sexes were anesthetized by placing them at −20° C., then the abdomen and elytra of adults were cut off with a pair of fine scissors. Dissecting tools were rinsed with acetone several times between dissections to avoid cross-contamination. The dissected parts were extracted in a 1-ml vial containing 500 μl of hexane for two hours. Ten males and females were dissected and extracted. The extracts were concentrated to 200 μl under a mild stream of N2. Approximately 20 μl of the extracts, equivalent to one adult, was used for the EAG tests.
(§1) Both sexes of C. maculata were handled vigorously, and pressed against a piece of filter paper (Whatman, No. 1), resulting in reflex bleeding production of orange colored fluid excreted through the joints of the legs, that was absorbed into the filter paper. Fluids from 20 beetles were collected. The filter paper used for the collection was then cut into small pieces and placed in a 2-ml vial and extracted with 200 μl of hexane for one hour. A volume of 10 μl of the concentrated extract was used for EAG tests.
(§2) Corn (Pioneer, Hybrid 3489) was grown in the greenhouse under approx. 25° C. and 75% humidity, with natural light supplemented by 400 Watt high pressure sodium lights. The three-leaf stage of plants was used for volatile collections, because this life stage is infested by corn leaf aphids (Bing, J. W., et al., 1992, J. Econ. Entomol.21:223-234) and it is also a stage searched by these predatory species. Corn leaves were removed from plants, and ca. 15 g placed in a 0.5-1 glass collector with two openings on each side. A stream of purified air passing through a freshly activated charcoal filter was blown into the inlet of the collector, through the corn leaves, then exited through the outlet connected to a Tenax trap. The trap consisted of a Pasteur pipette (5 cm long and 0.5 cm diameter) packed with 300 mg of Tenax (20-35 mesh, Alltech, Ill.). The flow rate of the air was 150 ml/min from the outlet of the Tenax trap, and the volatiles were collected for 18 hours. The trapped volatiles were eluted with HPLC-grade hexane. The extracts from three collections were combined and concentrated to 100 μl. Ten microliters of extracts were used for each EAG test.
(§3) Dried seeds and flowers of catnip, Nepeta cataria, were purchased from a local pet store. For EAG tests, approx. 0.2 mg of dried plant material was homogenized, then extracted by adding 500 μl of hexane. The extract was poured through a funnel with filter paper (Whatman No.1), and the residue was discarded. The extract was concentrated to 100 μl, under a mild stream of N2. The extract was then stored at −20° C. until used in EAG tests.
EAG recordings were made by connecting an electrogel-filled (Spectro 360, Parker Laboratory, New Jersey) glass-pipette Ag/AgCl electrode to the head of an excised beetle or lacewing. A recording electrode filled with the same electrogel connected to a high-impedance DC amplifier with automatic baseline drift compensation, was placed in contact with the tip of their antennae (intact). Antennal responses to various chemical stimuli were first recorded for a series of commercial synthetic compounds representing known corn leaf volatiles. Then, male and female body extracts of C. maculata, reflex bleeding extracts, aphid alarm pheromone and catnip extracts were tested. A second series of EAG tests was then conducted including dose-response series using selected EAG-active compounds from the first test. Serial dilutions of the tested compounds were made in redistilled HPLC-grade hexane at dosages ranging from 0.1 μg to 1000 μg, except α-terpineol, for which methylene chloride was used. The tested compounds and extracts were applied to filter-paper strips (0.5×2.5 cm, Whatman No.1) in 10 μl of solvent, except as otherwise noted. The filter-paper strips were inserted into Pasteur pipettes (15 cm long). Control puffs of air were applied after each puff of a test stimulus. […]

[2] = test system: antennae of Chrysoperla carnea; assay: Electroantennogram (EAG) responses of Chrysoperla carnea antennae; settings: for EAG response: C. carnea antennae
Protocol: as §1, §2, §3
EAG recordings were made by connecting an electrogel-filled (Spectro 360, Parker Laboratory, New Jersey) glass-pipette Ag/AgCl electrode to the head of an excised beetle or lacewing. A recording electrode filled with the same electrogel connected to a high-impedance DC amplifier with automatic baseline drift compensation, was placed in contact with the tip of their antennae (intact). Antennal responses to various chemical stimuli were first recorded for a series of commercial synthetic compounds representing known corn leaf volatiles. Then, male and female body extracts of C. maculata, reflex bleeding extracts, aphid alarm pheromone and catnip extracts were tested. A second series of EAG tests was then conducted including dose-response series using selected EAG-active compounds from the first test. Serial dilutions of the tested compounds were made in redistilled HPLC-grade hexane at dosages ranging from 0.1 μg to 1000 μg, except α-terpineol, for which methylene chloride was used. The tested compounds and extracts were applied to filter-paper strips (0.5×2.5 cm, Whatman No.1) in 10 μl of solvent, except as otherwise noted. The filter-paper strips were inserted into Pasteur pipettes (15 cm long). Control puffs of air were applied after each puff of a test stimulus. The response to the air puff was used to normalize beetle or lacewing responses relative to the tested stimuli. The average EAG response to the air puff from antennae of C. maculata and C. carnea was 0.05±0.003 mV (n=30) and 0.02±0.001 mV (n=27), respectively. The relative EAG response of each stimulus was normalized by dividing the amplitude of the test stimulus by the mean of the response to the control puff. The sequence of exposure of each stimulus to each antenna was randomly defined.

[3] = test system: C. cognata; settings: Boo et al. 1998; cited from earlier work
[4] = test system: Coleomegilla maculata; assay: Field trapping test in an alfalfa field, C. maculata catches; assay type: in vivo; settings: traps baited with 50 mg
Protocol: (§4) A field trapping test was conducted in an alfalfa field in Ames, Iowa. Synthetic compounds at a dose of 50 mg were prepared in hexane or methylene chloride. Medical peerless cotton rolls (5 cm long, 100% cotton) were used as dispensers, and the traps used were similar to the Rebell Trap (Great Lakes IPM, Mich.). The trap was hung from the bent end of an electric farm post, 1.2 m above the ground. Within a replicate (N=3), traps were set at least 10 m apart. The traps were checked daily, and trap position within a series was randomized to minimize the effects of habitat heterogenity.

[5] = test system: Chrysoperla carnea; assay: Field trapping test in an alfalfa field, C. carnea catches; assay type: in vivo; settings: traps baited with 50 mg
Protocol: as §4

[6] = test system: Hippodamia convergens; settings: behavioral test; cited from earlier work
[7] = test system: Harmonia axyridis; settings: behavioral test; cited from earlier work
[8] = test system: Coccinella septempunctata; settings: Nakamuta 1991; cited from earlier work
[9] = test system: C. carnea; settings: earlier study, Flint et al. 1979; cited from earlier work

Row | Structure (SMILES) | EAG response [1] | EAG response threshold of female antennae [1] | EAG response ([2]; both sexes) | trap catches / attraction of C. maculata in field test [4] | further results
1 | CC1=COC(=O)[C@H]2[C@@H]1CC[C@@H]2C [(4aS,7S,7aR)-nepetalactone, reference compound] | responded; also recorded: relatively higher EAG response; also recorded: significant EAG responses | higher thresholds | responded; also recorded: significant EAG responses |  | dose at which EAG saturation occurred ([1]; C. maculata): 100 µg; minimum dose for a significant EAG response ([1]; C. maculata): 100 µg; EAG response of female antennae ([2]; C. carnea female antennae): greater; attraction of adult C. cognata in the field [3]: attracted
2 | CC/C=C\CCO [(Z)-3-hexenol, (Z)-Hexenol] | EAG responses | higher thresholds | relatively lower EAG responses |  | 
3 | C=CC(O)CCCCC (stereo not shown) [1-octen-3-ol, 1-Octen-3-ol] | EAG responses |  |  |  | difference in EAG response between male and female antennae ([1]; C. maculata, male relative to female): significantly higher EAG response; also recorded: Sexual differences
4 | OCCc1ccccc1 [2-phenylethanol, 2-Phenylethanol] | significantly higher; also recorded: highest EAG responses |  | significant response; also recorded: highly sensitive; also recorded: most strongly | significantly attracted; also recorded: highly attractive | dose eliciting significant EAG responses from female antennae [1]: 10 µg; dosage eliciting significant EAG responses ([2]; C. carnea, antennae of both sexes): 10 µg; trap catches / attraction of C. carnea in field test [5]: significantly attracted; also recorded: highly attractive
5 | CCCCCCO [hexanol, 1-Hexanol] | EAG responses |  |  |  | 
6 | C=CC(=C)CC/C=C(\C)CCC=C(C)C [(E)-β-farnesene, (E)-β-Farnesene] | significantly higher; also recorded: highest EAG responses |  | significant response; also recorded: increased with increasing doses; also recorded: highly sensitive; also recorded: most strongly | no differences in catches | EAG response of male antennae ([1]; C. maculata male antennae): as high as those in response to aphid sex pheromone; dose at which EAG of male antennae reached saturation ([1]; C. maculata male antennae): 100 µg; dose of highest EAG response ([2]; C. carnea, both sexes, dose-response): 1000 µg; attraction of Hippodamia convergens [6]: attracted; attraction of Harmonia axyridis [7]: attracted; searching behaviors of Coccinella septempunctata [8]: does not elicit searching behaviors
7 | C=C1CC/C=C(\C)CC[C@@H]2[C@@H]1CC2(C)C [β-caryophyllene, β-Caryophyllene] | highest EAG responses |  | relatively low EAG response |  | trap catches / attraction of C. carnea in field test [5]: low catches; attraction of adults of C. carnea in the field [9]: acts as an attractant
8 | CC1=CCC(C(C)(C)O)CC1 (stereo not drawn) [α-terpineol, α-Terpineol] | significantly higher; also recorded: highest EAG responses | higher thresholds | relatively lower EAG responses | Significant catches | dose eliciting significant EAG responses from female antennae [1]: 10 µg; dose at which EAG of male antennae reached saturation ([1]; C. maculata male antennae): 100 µg; trap catches / attraction of C. maculata in field test ([4]; listed as a-terpineol): attracted
9 | CC1=CO[C@@H](O)[C@H]2[C@@H]1CC[C@@H]2C [(1R,4aS,7S,7aR)-nepetalactol, reference compound] | responded; also recorded: significant EAG responses |  | responded; also recorded: significant EAG responses |  | dose at which EAG saturation occurred ([1]; C. maculata): 100 µg; minimum dose for a significant EAG response ([1]; C. maculata): 100 µg
